Source: patent US7141394B2, “More stable analog of isopropyl thiogalactoside for induction of protein expression” (Iowa State University Research Foundation, Inc., priority 2003, dated 2006)
“Also recorded” adds a separate entry of the source.

Legend:
lac promoter = assay: EGFP fluorescence reporter assay of induction of protein expression under the lac promoter; assay type: cell-based, E. coli; conditions: for EGFP fluorescence emission at 507 nm after excitation at 488 nm, normalized for the number of cells: induced at OD600 0.7, versus culture without inducer
Source text: To compare the ability of the C-glycoside to take the place of IPTG in the induction of protein expression, assays of promoter activity that rely on production of a fluorescent protein were pursued. Reporters for gene activity in bacteria that rely on green fluorescent protein (GFP) and its variants have become very popular as they have been validated by direct comparison to traditional reporter assays using either chloroamphenicol acetyltransferase or β-galactosidase. For bacterial studies, the enhanced green fluorescent protein (EGFP) is particularly useful as it is not toxic to E. coli like the wild type GFP itself and the protein folds and autocatalyzes formation of its fluorophore with a half-life of less than 45 minutes rather than hours. Therefore, the gene for EGFP (BD Biosciences) was ligated into a pET vector plasmid using NcoI and EcoRI in order to have control of EGFP protein expression with a lac promoter system and to have low background protein expression levels. This plasmid was transformed into E. coli BL21 DE(3) cells for protein expression studies. The cells were grown to an optical density of 0.7 (at 600 nm) and then protein production was induced with either IBCG or IPTG. The fluorescence emission at 507 nm after excitation at 488 nm, normalized for the number of cells, was plotted as a function of time (data not shown) as previously reported.

[1] = Stability of the inducer in solution on storage; assay type: physicochemical; conditions: ambient / room temperature; in water
Source text: This improved stability feature of IBCG also results in more accurate concentrations of the compound when used in experiments.
The latter property is especially valuable for small scale culture induction and for cases in which a more precise concentration of inducer is desirable.

[2] = E. coli BL21 DE(3) with pET-EGFP plasmid

| SMILES | EGFP fluorescence emission at 507 nm after excitation at 488 nm, normalized for the number of cells (lac promoter; [2]) | EGFP fluorescence of IBCG induced cells compared with IPTG induced cells (lac promoter; E. coli BL21 DE(3) with pET-EGFP plasmid, induction times of greater than four hours) | cell permeability (lac promoter; E. coli cells, inferred from induction of protein expression) | stability in solution [1] |
| --- | --- | --- | --- | --- |
| CC(C)S[C@@H]1O[C@H](CO)[C@H](O)[C@H](O)[C@H]1O [IPTG, isopropyl-β-D-thiogalactopyranoside, reference compound] | considerably larger |  |  |  |
| CC(C)CC1OC(CO)C(O)C(O)C1O [IBCG, 1-isobutyl-,β-D-galactose] | considerably larger | even greater fluorescence than the IPTG induced cells | retains cell permeability | stable in solution at ambient temperature; also recorded: can be autoclaved in water and stored in room temperature |
